Results as given in paper PMC7781899, “Synthesis of some quinazolinones inspired from the natural alkaloid L-norephedrine as EGFR inhibitors and radiosensitizers” (Journal of Enzyme Inhibition and Medicinal Chemistry, 2020).
Read-outs that look alike come from different tables or passages of the source.

Tests used:
[1] = test system: HCT-116; assay: MTT cytotoxicity assay, HCT-116; format: cell-based, human; details: Homo sapiens
Method: (§1) The 96-well plate was incubated for 24 h before the MTT assay. […] Cells were cultured using DMEM supplemented with 10% foetal bovine serum, 10 µg/mL insulin and 1% penicillin–streptomycin. Reconstituted MTT (10%) was added and incubated for 2 h. Formazan crystals were dissolved by the MTT solubilizing solution after incubation. Absorbance was measured at a wavelength of 570 nm[28].

[2] = test system: HepG-2; assay: MTT cytotoxicity assay, HepG-2; format: cell-based, human; details: Homo sapiens
Method: as §1

[3] = biological target: T1, EGFR (Homo sapiens, UniProt P00533); assay: EGFR kinase assay; format: biochemical; details: EGFR-TK inhibitory assay; means ± SE, three repeats
T1 construct: purchased Invitrogen
Method: An ATP solution and a kinase/peptide mixture were developed just before use. […] Then, […] of the prepared solution was added to each well. The plate was incubated for 1 h and determined by an ELISA Reader (PerkinElmer, USA). Curve fitting using Graph Pad Prism 5 was constructed. Each experiment was repeated three times. IC50 was represented as means ± SE.

[4] = test system: MCF-7; assay: MTT cytotoxicity assay, MCF-7; format: cell-based, human; details: Homo sapiens
Method: as §1

[5] = test system: MDA-MB-231; assay: MTT cytotoxicity assay, MDA-MB-231; format: cell-based, human; details: Homo sapiens
Method: as §1

[6] = HCT-116, MTT assay, mean of three experiments ± SE, read-out: IC50 HCT-116
[7] = HepG2, MTT assay, mean of three experiments ± SE, read-out: IC50 HepG-2
[8] = MCF7, MTT assay, mean of three experiments ± SE, read-out: IC50 MCF-7
[9] = MDA-MB-231, MTT assay, mean of three experiments ± SE, read-out: IC50 MDA-MB-231

T1 sequence (P00533 25-1210): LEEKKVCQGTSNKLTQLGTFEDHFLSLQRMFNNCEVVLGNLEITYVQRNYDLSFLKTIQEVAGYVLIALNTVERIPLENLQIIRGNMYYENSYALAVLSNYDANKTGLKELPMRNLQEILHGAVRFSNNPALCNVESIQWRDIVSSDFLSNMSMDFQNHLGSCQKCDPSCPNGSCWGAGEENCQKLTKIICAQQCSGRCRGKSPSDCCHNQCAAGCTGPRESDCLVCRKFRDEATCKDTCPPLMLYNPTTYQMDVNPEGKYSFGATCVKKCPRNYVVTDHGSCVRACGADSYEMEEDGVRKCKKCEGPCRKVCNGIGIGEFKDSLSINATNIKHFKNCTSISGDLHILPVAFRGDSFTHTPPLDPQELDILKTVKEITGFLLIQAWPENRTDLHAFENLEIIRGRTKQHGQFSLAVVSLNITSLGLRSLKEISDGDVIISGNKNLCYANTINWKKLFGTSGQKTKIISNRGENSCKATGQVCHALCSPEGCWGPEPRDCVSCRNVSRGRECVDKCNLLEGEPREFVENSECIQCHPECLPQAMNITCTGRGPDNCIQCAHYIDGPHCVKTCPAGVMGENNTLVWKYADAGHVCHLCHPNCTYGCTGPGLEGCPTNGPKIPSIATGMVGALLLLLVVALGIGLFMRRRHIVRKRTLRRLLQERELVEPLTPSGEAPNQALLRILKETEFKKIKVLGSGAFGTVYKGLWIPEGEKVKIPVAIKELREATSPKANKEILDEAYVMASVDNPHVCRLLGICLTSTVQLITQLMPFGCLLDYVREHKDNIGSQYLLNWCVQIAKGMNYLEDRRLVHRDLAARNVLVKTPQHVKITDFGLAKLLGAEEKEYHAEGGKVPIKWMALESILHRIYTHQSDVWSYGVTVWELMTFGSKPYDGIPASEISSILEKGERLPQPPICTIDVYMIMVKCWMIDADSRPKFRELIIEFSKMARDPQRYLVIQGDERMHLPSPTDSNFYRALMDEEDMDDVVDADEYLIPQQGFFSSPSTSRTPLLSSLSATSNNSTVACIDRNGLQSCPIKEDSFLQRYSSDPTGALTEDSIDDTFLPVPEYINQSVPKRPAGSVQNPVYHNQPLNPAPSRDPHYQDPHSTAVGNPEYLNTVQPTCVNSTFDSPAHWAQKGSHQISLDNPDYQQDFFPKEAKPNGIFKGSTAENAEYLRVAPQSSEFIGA

| SMILES | melting point [°C] | IC50 [3] [µM] | IC50 [1, 6] [µM] | IC50 [2, 7] [µM] | IC50 [4, 8] [µM] | IC50 [5, 9] [µM] | IC50 ([1]; HCT-116, read-out: IC50 HCT-116) [µM] | IC50 ([2]; HepG2, read-out: IC50 HepG-2) [µM] | IC50 ([4]; MCF7, read-out: IC50 MCF-7) [µM] | IC50 ([5]; MDA-MB-231, read-out: IC50 MDA-MB-231) [µM] |
| --- | --- | --- | --- | --- | --- | --- | --- | --- | --- | --- |
| CC(Nc1nc2ccccc2c(=O)n1N)C(O)c1ccccc1 (centres unmarked) [Compound 11, 3-amino-2-(1-hydroxy-1-phenylpropan-2-ylamino)quinazolin-4(3H)-one] | 147.5 | 3.87 ± 0.11 | 44.15 ± 0.22 | 33.65 ± 0.26 | 39.42 ± 0.3 | 16.39 ± 0.06 |  |  |  |  |
| Nn1c(O)nc2ccccc2c1=O [Compound 12, 3-Amino-2-hydroxyquinazolin-4(3H)-one] |  | 7.39 ± 0.28 | 50.75 ± 0.29 | 20.5 ± 0.31 | 66.3 ± 0.72 | 57.78 ± 0.43 |  |  |  |  |
| CCOc1nc2ccccc2c(=O)n1N [Compound 13, 3-amino-2-ethoxyquinazolin-4(3H)-one] |  | 8.35 ± 0.32 | > 100 | > 100 | > 100 | 81.43 ± 0.27 |  |  |  |  |
| O=c1c2ccccc2nc2[nH]n3c(=O)c4ccccc4nc3[nH]n12 [Compound 14, [1,2,4,5]tetrazino[3,2-b:6,5-b']diquinazoline-8,16(6H,14H)-dione] | 294.1 | 1.39 ± 0.27 | 29.32 ± 0.16 | 41.25 ± 0.23 | 30.12 ± 0.19 | 26.55 ± 0.04 |  |  |  |  |
| C#Cc1cccc(Nc2ncnc3cc(OCCOC)c(OCCOC)cc23)c1 [Erlotinib, reference compound] |  |  |  |  |  |  | 2.78 ± 0.04 | 3.04 ± 0.2 | 4.48 ± 0.02 | 3.73 ± 0.01 |

Continued, in another order:

| melting point [°C] | IC50 [3] [µM] | SMILES | IC50 [1, 6] [µM] | IC50 [2, 7] [µM] | IC50 [4, 8] [µM] | IC50 [5, 9] [µM] | IC50 ([1]; HCT-116, read-out: IC50 HCT-116) [µM] | IC50 ([2]; HepG2, read-out: IC50 HepG-2) [µM] | IC50 ([4]; MCF7, read-out: IC50 MCF-7) [µM] | IC50 ([5]; MDA-MB-231, read-out: IC50 MDA-MB-231) [µM] |
| --- | --- | --- | --- | --- | --- | --- | --- | --- | --- | --- |
|  | 1.09 ± 0.12 | CC1C(c2ccccc2)Oc2nc3ccccc3c(=O)n21 (centres unmarked) [Compound 15, 3-Methyl-2-phenyl-2H-oxazolo[2,3-b]quinazolin-5(3H)-one] | 26.51 ± 0.17 | 28.5 ± 0.4 | 19.67 ± 0.13 | 2.41 ± 0.03 |  |  |  |  |
|  | 1.02 ± 0.05 | CC1C(c2ccccc2)Oc2nc3ccccc3c(=O)n2C(C)C(c2ccccc2)Oc2nc3ccccc3c(=O)n21 (centres unmarked) [Compound 17, 8,18-dimethyl-7,17-diphenyl-7,8,17,18-tetrahydro-[1,6,3,8]dioxadiazecino[2,3-b:7,8-b']diquinazoline-10,20-dione] | 18.4 ± 0.2 | 24.3 ± 0.18 | 20.1 ± 0.27 | 5.45 ± 0.06 |  |  |  |  |
|  | 0.99 ± 0.04 | CC(Nc1nc2ccccc2c(=O)n1C(C)C(O)c1ccccc1)C(O)c1ccccc1 (centres unmarked) [Compound 18, 3-(1-hydroxy-1-phenylpropan-2-yl)-2-(1-hydroxy-1-phenylpropan-2-ylamino)quinazolin-4(3H)-one] | 44.9 ± 0.52 | 50 ± 0.13 | 62.59 ± 0.18 | 62.94 ± 0.1 |  |  |  |  |
